The text below walks through data of PMC5615155 (Toxicology Reports, 2017).

Broadly, the Cmax is the maximum level reached in the sampled fluid or tissue. Broadly, the Tmax is the time from dosing to the highest level.

Series [1] in a line: in vitro microsomal metabolism. The settings on record: 10 μM, 0.5 mg/mL, +NADPH, 120 min. It counts as in vitro ADME, Sprague-Dawley rat.
Series [2] can be described thus: in vitro microsomal metabolism. It counts as in vitro ADME, human. The settings on record: 10 μM, 0.5 mg/mL, +NADPH, 120 min.
The conditions of series [3]: cited from earlier work.
Series [4] has as its system S. typhimurium strains TA98, TA100, TA1535, TA1537. The conditions noted are these: up to 5000 μg/plate, with and without metabolic activation; cited from earlier work.
The test system of a further series is CHO-WBL cells. The conditions noted are these: ± metabolic activation, up to 2500 μg/mL; cited from earlier work.
Another series has as its system HPBLs. The settings on record: cited from earlier work.
Another series deals with E. coli strain WP2 uvrA. The conditions noted are these: up to 5000 μg/plate, with and without metabolic activation; cited from earlier work.
For series [5] the following is noted: male mice, 2000 mg/kg bw; cited from earlier work.
For series [6] the following is noted: Day 1 of 90-day study, cited from earlier work.

Read-outs that look alike come from different tables or passages of the source.

With `O=C1CC2(CCCC2)CC(=O)N1CCCCN1CCN(c2ncccn2)CC1` [Buspirone, reference compound], the “% MS (EIC) peak area of parent relative to time 0” value in series [1] was 21%; in series [2], 2%.

Take `CC(C)CC(=O)N1CCC[C@H](COc2cccc3c2C(N)=NS(=O)(=O)N3)C1` [S617, (S)-1-(3-(((4-amino-2,2-dioxido-1H-benzo[c][1,2,6]thiadiazin-5-yl)oxy)methyl)piperidin-1-yl)-3-methylbutan-1-one]: the AUClast is 212 ng·h/mL in [3] (iv 1.0 mg/kg, F); 263 ng·h/mL in [3] (iv 1.0 mg/kg, M); 36.7 ng·h/mL in series [3] (oral gavage 10 mg/kg, F); 17.5 ng·h/mL in series [3] (oral gavage 10 mg/kg, M); 56.3 ng·h/mL in series [3] (oral gavage 30 mg/kg, F); 42.5 ng·h/mL in [3] (oral gavage 30 mg/kg, M). For the same molecule, the AUClast in series [3] (oral gavage 100 mg/kg, F) was 92.6 ng·h/mL; in series [3] (oral gavage 100 mg/kg, M) it was 53.2 ng·h/mL. Also, the Cmax in series [3] (iv 1.0 mg/kg, F) is 1308 ng/mL; in [3] (iv 1.0 mg/kg, M), 1663 ng/mL; in [3] (oral gavage 10 mg/kg, F), 4.80 ng/mL; in [3] (oral gavage 10 mg/kg, M) it was 3.30 ng/mL; in series [3] (oral gavage 30 mg/kg, F) it was 9.40 ng/mL; in [3] (oral gavage 30 mg/kg, M), 7.10 ng/mL. For the same molecule, the Cmax was 18.3 ng/mL in series [3] (oral gavage 100 mg/kg, F) and 10.1 ng/mL in [3] (oral gavage 100 mg/kg, M). For the same molecule, the Tmax was 0.03 h in series [3] (iv 1.0 mg/kg, F); 0.03 h in series [3] (iv 1.0 mg/kg, M); 0.88 h in [3] (oral gavage 10 mg/kg, F); 0.44 h in series [3] (oral gavage 10 mg/kg, M); 1.38 h in series [3] (oral gavage 30 mg/kg, F); 1.25 h in series [3] (oral gavage 30 mg/kg, M). Also, the Tmax in series [3] (oral gavage 100 mg/kg, F) is 0.50 h; in series [3] (oral gavage 100 mg/kg, M), 1.38 h. The “%F” value in series [3] (oral gavage 10 mg/kg, F) was 1.73%; in series [3] (oral gavage 10 mg/kg, M), 0.67%; in [3] (oral gavage 30 mg/kg, F), 0.89%; in series [3] (oral gavage 30 mg/kg, M) it was 0.54%; in series [3] (oral gavage 100 mg/kg, F), 0.44%; in [3] (oral gavage 100 mg/kg, M), 0.20%. Also, the t1/2 in series [3] (oral gavage 10 mg/kg, F) is 4.25 h; in [3] (oral gavage 10 mg/kg, M), 3.85 h; in [3] (oral gavage 30 mg/kg, F) it was 3.57 h; in series [3] (oral gavage 30 mg/kg, M), 3.03 h; in series [3] (oral gavage 100 mg/kg, F), 1.45 h; in series [3] (oral gavage 100 mg/kg, M) it was 3.48 h. Further, the “bacterial reverse mutation result” value (in series [4]; with E. coli strain WP2 uvrA) was “non-mutagenic” throughout. In the series on CHO-WBL cells, the “in vitro micronucleus result” value is “neither clastogenic nor aneugenic”. For the same molecule, the chromosome aberration result in the series on HPBLs is listed as “non-clastogenic”.

Turning to `CCCNC(=O)C(C)(C)COc1cccc2c1C(N)=NS(=O)(=O)N2` [S6973, 3-((4-amino-2,2-dioxido-1H-benzo[c][1,2,6]thiadiazin-5-yl)oxy)-2,2-dimethyl-N-propylpropanamide], the AUClast in series [3] (iv 2.5 mg/kg, M) is 1760 ng·h/mL; in [3] (oral gavage 5.0 mg/kg, M), 337 ng·h/mL; in [3] (oral gavage 10 mg/kg, M) it was 453 ng·h/mL; in series [3] (oral gavage 20 mg/kg, M), 553 ng·h/mL. Further, the Cmax in series [3] (iv 2.5 mg/kg, M) is on record as 3997 ng/mL; in [3] (oral gavage 5.0 mg/kg, M), 74.8 ng/mL; in series [3] (oral gavage 10 mg/kg, M), 103 ng/mL; in [3] (oral gavage 20 mg/kg, M), 111 ng/mL. Further, the Tmax is given as 0.083 h in series [3] (iv 2.5 mg/kg, M); 1.33 h in [3] (oral gavage 5.0 mg/kg, M); 1.00 h in [3] (oral gavage 10 mg/kg, M); 1.33 h in series [3] (oral gavage 20 mg/kg, M). In addition, the t1/2 in [3] (iv 2.5 mg/kg, M) is listed as 0.78 h; in series [3] (oral gavage 5.0 mg/kg, M), 3.67 h; in [3] (oral gavage 10 mg/kg, M) it was 2.98 h; in series [3] (oral gavage 20 mg/kg, M) it was 4.53 h. In addition, the “%F” value is 9.56% in series [3] (oral gavage 5.0 mg/kg, M); 6.43% in series [3] (oral gavage 10 mg/kg, M); 3.93% in series [3] (oral gavage 20 mg/kg, M). Moreover, the “in vivo micronucleus result” value in series [5] is “neither clastogenic nor aneugenic”. Also, the “bacterial reverse mutation result” value (in series [4]; in the series on E. coli strain WP2 uvrA) was “non-mutagenic” each time. Also, in the series with HPBLs, the chromosome aberration result is reported as “non-clastogenic”. Moreover, the “bioavailability, food ad-mix” value was 8.04% in series [6] (5.0 mg/kg bw) and 7.73% in [6] (20 mg/kg bw).
